According to patent publication US10870638B2, “Pyridazinone compound or its salt, and herbicide containing it” (ISHIHARA SANGYO KAISHA, LTD., priority 2016, dated 2020):

Assays:
Type in all cases: in vivo
Settings in all cases: active ingredient amount 31 g/ha, 14th day after application
[1] = tested on: green foxtail (Setaria viridis L.); assay: Test Example 2: soil application on the day after sowing, growth inhibition rate on 14th day
In short: (§1)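 Read-out is visual percent growth inhibition 14 days post-application, scaled from 0 (as non-treated) to 100 (complete kill). Treatment: soil application by small sprayer the day after sowing, compound formulations diluted in water equivalent to 1,000 L/ha.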

rice (Oryza sativa L.) [2] = assay: as above
In short: as §1

[3] = tested on: redroot pigweed (Amaranthus retroflexus L.); assay: as above
In short: as §1

[4] = tested on: wheat (Triticum aestivum L.); assay: as above
In short: as §1

[5] = tested on: prickly sida (Sida spinosa L.); assay: as above
In short: as §1

[6] = tested on: crabgrass (Digitaris sanquinalis L.); assay: as above
In short: as §1

[7] = tested on: soybean (Glycine max Merr.); assay: as above
In short: as §1

[8] = tested on: barnyardgrass (Echinochloa crus-qalli L.); assay: as above
In short: as §1

corn (Zea mays L.) [9] = assay: as above
In short: as §1

[10] = tested on: velvetleaf (Abutilon theophrasti MEDIC.); assay: as above
In short: as §1

[11] = tested on: green foxtail (Setaria viridis L.); assay: Test Example 1: foliar treatment, growth inhibition rate on 14th day
In short: (§2)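 Compounds applied once to leaves of pot-grown plants; wild oat at 0.4–1.2 leaf, foxtail 0.5–3.2, rice 0.2–2.7, soybean primary leaf. Inhibition estimated by eye on day 14.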

rice (Oryza sativa L.) [12] = assay: as above
In short: as §2

[13] = tested on: redroot pigweed (Amaranthus retroflexus L.); assay: as above
In short: (§3)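 Using a small sprayer, formulated compound in water (0.1 vol % surfactant, 1,000 L/ha) was applied to seedlings grown from seed in upland soil. Fourteen days on, growth state was observed and expressed as percent inhibition from 0 to 100.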

[14] = tested on: wheat (Triticum aestivum L.); assay: as above
In short: as §3

[15] = tested on: crabgrass (Digitaria sanquinalis L.); assay: as above
In short: as §3

[16] = tested on: soybean (Glycine max Merr.); assay: as above
In short: as §2

[17] = tested on: barnyardgrass (Echinochloa crus-qalli L.); assay: as above
In short: as §3

corn (Zea mays L.) [18] = assay: as above
In short: as §3

[19] = tested on: italian ryegrass (Lolium multiflorum Lam.); assay: as above
In short: as §3

[20] = tested on: wild oat (Avena fatua L.); assay: as above
In short: as §2

SMILES	Growth inhibition rate (%) Green foxtail [1]	Growth inhibition rate (%) Rice (rice (Oryza sativa L.) [2])	Growth inhibition rate (%) Redroot pigweed [3]	Growth inhibition rate (%) Wheat [4]	Growth inhibition rate (%) Prickly sida [5]	Growth inhibition rate (%) Crabgrass [6]	Growth inhibition rate (%) Soybean [7]	Growth inhibition rate (%) Barnyardgrass [8]	Growth inhibition rate (%) Corn (corn (Zea mays L.) [9])	Growth inhibition rate (%) Velvetleaf [10]	Growth inhibition rate (%) Green foxtail [11]	Growth inhibition rate (%) Rice (rice (Oryza sativa L.) [12])	Growth inhibition rate (%) Redroot pigweed [13]	Growth inhibition rate (%) Wheat [14]	Growth inhibition rate (%) Crabgrass [15]	Growth inhibition rate (%) Soybean [16]	Growth inhibition rate (%) Barnyardgrass [17]	Growth inhibition rate (%) Corn (corn (Zea mays L.) [18])	Growth inhibition rate (%) Italian ryegrass [19]	Growth inhibition rate (%) Wild oat [20]
Cc1nn(C)c(=O)c(-c2cc(Oc3ncc(C(F)(F)F)cc3Cl)ccc2OC(F)(F)F)c1O [1-163]	100%	40%	0%	0%	0%	100%	0%	100%	80%	0%	100%	75%	0%	60%	100%	0%	100%	100%	99%	100%
CCn1nc(C)c(OC(C)=O)c(-c2cc(Oc3ncc(C(F)(F)F)cc3Cl)ccc2C)c1=O [1-165]	95%	0%	0%	0%	0%	100%	0%	99%	0%	0%	100%	83%	0%	95%	100%	0%	100%	100%	100%	100%
Cc1c(Oc2ncc(C(F)(F)F)cc2Cl)cccc1-c1c(O)cnn(CC2CC2)c1=O [1-166]	80%	0%	0%	0%	0%	95%	0%	80%	0%	0%	100%	10%	0%	10%	99%	15%	95%	98%	30%	93%
C=CCn1ncc(O)c(-c2cc(Oc3ncc(C(F)(F)F)cc3Cl)ccc2C)c1=O [1-167]	95%	0%	0%	0%	0%	100%	0%	85%	0%	0%	100%	35%	0%	40%	99%	10%	98%	100%	93%	98%
CC(=O)Oc1cnn(CC2CC2)c(=O)c1-c1cccc(Oc2ncc(C(F)(F)F)cc2Cl)c1C [1-170]	98%	0%	0%	0%	0%	93%	0%	75%	0%	0%	98%	40%	10%	0%	99%	0%	95%	99%	30%	40%
CC(=O)Oc1cnn(C)c(=O)c1-c1cc(Oc2ncc(C(F)(F)F)cc2Cl)ccc1C [1-171]	100%	0%	0%	0%	0%	100%	0%	100%	0%	0%	100%	85%	0%	83%	100%	0%	100%	100%	100%	100%
CCc1ccc(Oc2ncc(C(F)(F)F)cc2Cl)cc1-c1c(O)cnn(CC)c1=O [1-173]	100%	60%	0%	0%	0%	100%	0%	100%	50%	0%	100%	60%	0%	35%	100%	0%	100%	99%	95%	100%
